Source: publication PMC8311651, “Controlling Intramolecular Interactions in the Design of Selective, High-Affinity Ligands for the CREBBP Bromodomain” (Journal of Medicinal Chemistry, 2021)
Values joined by “and” are separate entries in the source; they are usually repeats but may differ in a detail not shown here. Equal entries are not always repeated. Where two headings read alike, the source gives them in different places.

How the values were obtained:
[1] = biological target: T1, CREBBP bromodomain (Homo sapiens, UniProt Q92793); test: Isothermal titration calorimetry (ITC), CREBBP bromodomain; assay type: binding
Method: Figure S11. The isothermal titration calorimetry (ITC) data for the compounds shown, measured for the CREBBP bromodomain.
(§1) Isothermal Titration Calorimetry. All calorimetric experiments were performed on a MicroCal iTC200 or MicroCal PEAQ-ITC Automated (Malvern) and analyzed with the MicroCal PEAQ-ITC Analysis software (Malvern 1.1.0.1262) using a single binding site model, with the N number set to 1. The first data point was excluded from the analysis.
(§2) BRD4(1) and CREBBP bromodomains were dialyzed at 4 °C overnight in a Slide-A-Lyzer® MINI Dialysis Device (2000 MWCO; Thermo Scientific Life Technologies) into 50 mM HEPES, 150 mM NaCl containing 0.2% DMSO; pH 7.4. Proteins were centrifuged to remove […]
(§3) Protein concentration were determined by measuring
(§4) Technologies Inc.) by using the predicted protein absorbance (CREBBP: ε280: […]
(§5) dissolved as 10 to 50 mM DMSO stock solution and diluted to the required concentration using dialysis buffer. The cell was stirred at 750 rpm, reference power set to 5 μcal/sec and temperature held at 25 °C. After an initial delay of 60 sec, 20 × 2 μL injections (first injection 0.4 μL) were performed with a spacing of 150 sec. Heated dilutions were measured under the same conditions and subtracted for analysis. Small molecule solutions in the calorimetric
Target sequence in this assay (Q92793 1081-1197): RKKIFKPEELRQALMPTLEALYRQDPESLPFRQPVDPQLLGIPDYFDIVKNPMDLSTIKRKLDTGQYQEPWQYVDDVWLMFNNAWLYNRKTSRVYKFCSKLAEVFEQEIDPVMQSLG

[2] = biological target: T2, BRD4(1) (Homo sapiens, UniProt O60885); conditions: read-out: BRD4(1) Kd (NMR); ligand-observed 1H NMR, estimated Kd
Method: The reduction of the signal for the 4,5-dihydrobenzodiazepinone methyl group upon
BRD4(1) addition was used to monitor BRD4(1) binding.
The curves were derived from the integral reduction for the signal of the methyl
group located at 4,5-dihydrobenzodiazepinone headgroup upon BRD4(1) addition, detected
by means of Ligand-observed 1H NMR. E Kd values were determined using the one site-
specific binding model least square fit non-linear regression from Graphpad Prism®.
X = concentration of the ligand
Bmax = maximum binding in the same units as Y
Kd = dissociation constant in the same units as X
Ligand-Observed Proton NMR. BRD4(1) bromodomain protein in HEPES containing storage buffers were exchanged into Invitrogen 10 mM Na/K phosphate buffer (0.9% NaCl, pH 7.6) using dialysis. BRD4(1) bromodomain protein concentrations in the phosphate
Samples were prepared to a total sample volume of
160 µL phosphate buffer, with 50 µM compound from 5 mM D6-DMSO stock solutions, 10%
D2O for signal locking and the appropriate amount of protein. After loading into 3 mm
Hildenberg NMR tubes for Bruker Matchä system, samples were briefly centrifuged in a
manual benchtop rotor. Spectra were recorded on a Bruker AVIII 700 MHz spectrometer
with a TXI probe using a standard excitation-sculpting water suppression pulse sequence
For each compound, a compound only sample was recorded as a
reference, followed by samples with protein. Each spectrum was processed with Bruker
Topspinä 3.2, the data were recorded using Microsoft ExcelÒ, then the Kd value was
calculated using the “one site – specific binding; non-linear regression” function using
Graphpad PrismÒ. In Topspin, spectra were phased corrected and calibrated to the residual
DMSO peak, then local baseline corrections were performed (“absf n” function). The integral
of the studied peaks and the DMSO reference peaks were calculated in each spectra for the
determined chemical shift range (constant ranges were used for each studied compound).
Using the ratio of integrals, the integral decrease of the peak of interest with increasing […]

[3] = tested on: H3K18Ac in HCT116 cells; test: H3K18 acetylation in HCT116 cells (Western blot); assay type: cell-based, human; conditions: HCT116, 10 μM
Method: (§6) (A) HCT116 cells were exposed to 2 (10 μM) for the times shown. Western blots were then carried out for the proteins indicated. β-Actin is included as a loading control. (B) HCT116 cells were exposed to 2 (10 μM) for the times indicated followed by mRNA preparation. Q-PCR was then carried out to determine c-Myc mRNA levels compared to the 18S. Data were analyzed using one-way ANOVA. *P < 0.05, **P < 0.01, ***P < 0.001. […] (E) HCT116 cells were exposed to 2 (10 μM) or I-CBP112 for the times indicated.
(§7) overnight. Following compound treatment, cells were collected and lysed in urea buffer (9 M
(§8) urea, 75 mM Tris-HCl pH 7.5, 0.15 M β-mercaptoethanol). Proteins (50 µg) were separated
(§9) by gel electrophoresis on a 4-20% Tris-glycine gel and subjected to immunoblotting. The
(§10) 15, Santa Cruz). Secondary antibodies IRDye® 680RD Goat anti-Mouse IgG (H+L) and
(§11) IRDye® 680RD Goat anti-Rabbit IgG (H+L) were from LI-COR Biosciences. The Odyssey
(§12) infrared system (LI-COR) was used to image Western blots. […]
(§13) c-MYC For: […], c-MYC Rev: […],
(§14) 18S For: […], 18S Rev: […]. […]

[4] = tested on: c-Myc in HCT116 cells; test: c-Myc protein level in HCT116 cells (Western blot); assay type: cell-based, human; conditions: HCT116, 10 μM, 6-24 h
[5] = biological target: T2, BRD4(1); test: Isothermal titration calorimetry (ITC), BRD4(1); assay type: binding
Method: as §1, §2, §3, §4, §5

[6] = tested on: H3K27Ac in HCT116 cells; test: H3K27 acetylation in HCT116 cells (Western blot); assay type: cell-based, human; conditions: HCT116, 10 μM
Method: as §6, §7, §8, §9, §10, §11, §12, §13, §14

[7] = tested on: HIF-1α in HCT116 cells; test: HIF-1α level in HCT116 cells in hypoxia (Western blot); assay type: cell-based, human; conditions: HCT116, 10 μM, hypoxia (<0.1% O2)
[8] = biological target: T1, CREBBP bromodomain; test: BROMOscan (bromoKdELECT), CREBBP; assay type: binding; conditions: concentrations of up to 1 μM
Method: (§15) Figure 7 Representation of the bromoKdELECT data for (A) compound 2 and (B) compound 3. Using the BROMOscan platform, Kd values were determined for 12 phylogenetically diverse bromodomains (ATAD2B, BRD2(1), BRD4(1), BRD7, BRD9, BRPF1, CREBBP, EP300, PCAF, SMARCA4, TAF1(2), and TRIM24).
Target sequence in this assay (Q92793 1085-1192 limits assumed): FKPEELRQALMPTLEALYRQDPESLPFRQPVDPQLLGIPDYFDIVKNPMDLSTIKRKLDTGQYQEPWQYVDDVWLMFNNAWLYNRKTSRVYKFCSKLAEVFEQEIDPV

[9] = biological target: T3, EP300 bromodomain (Homo sapiens, UniProt Q09472); test: BROMOscan (bromoKdELECT), EP300; assay type: binding; conditions: concentrations of up to 1 μM
T3 sequence (Q09472 1049-1156 limits assumed): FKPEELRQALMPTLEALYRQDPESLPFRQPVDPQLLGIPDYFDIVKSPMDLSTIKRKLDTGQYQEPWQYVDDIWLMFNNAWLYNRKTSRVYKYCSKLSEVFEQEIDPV
Method: as §15

[10] = tested on: ATAD2B, BRD2(1), BRD4(1), BRD7, BRD9, BRPF1, PCAF, SMARCA4, TAF1(2), TRIM24 bromodomains; test: BROMOscan (bromoKdELECT), other bromodomains of the panel; assay type: binding; conditions: concentrations of up to 1 μM
Method: as §15

[11] = tested on: c-Myc mRNA in HCT116 cells; test: c-Myc mRNA level in HCT116 cells (Q-PCR); assay type: cell-based, human; conditions: HCT116, 10 μM, Q-PCR vs 18S
Method: as §6, with “times indicated. […]” for “times indicated.”
Petri dishes overnight. Following compound treatment, cells were collected, and RNA was
isolated using TRIzol (Invitrogen/Life Technologies) according to the manufacturer’s
instructions. For qPCR expression analysis, cDNA was reverse transcribed from total RNA
using the Verso Kit (Thermo Scientific). qPCR was performed using the SYBR Green PCR
Master Mix Kit (Applied Biosystems) in a 7500 FAST Real-Time PCR thermocycler with
v2.0.5 software (Applied Biosystems). The following sequences of qPCR primers were used: […]
as §13
18S For: […], 18S Rev: […]. The
c-MYC mRNA fold change was calculated using a 2–ΔΔCt method and expressed in relation
to the 18S reference gene. The qPCR graph shown represents the mean ± SD of 3 biological

COc1ccc2c(c1)N(CCC/C=C/c1cccc3c1N[C@H](C)CC(=O)N3)CCC2 [Compound 2, (R,E)-6-(5-(7-Methoxy-3,4-dihydroquinolin-1(2H)-yl)pent-1-en-1-yl)-4-methyl-1,3,4,5-tetrahydro-2H-benzo[b][1,4]diazepin-2-one]
Kd [1]: 102 ± 10 nM | selectivity for CREBBP versus BRD4(1) ([1]; BRD4(1) Kd from NMR): > 100 fold | LLE (A – B) ([1]; CREBBP pKd or pIC50 (A) minus cLogD pH7.4 (B)): 1.92 | CREBBP pKd ([1]; ITC): 7.0 | CREBBP / BRD4(1) selectivity ([1]; Table 2, BRD4(1) Kd from ITC and NMR): 101 | LE ([1]; from CREBBP pKd or pIC50): 0.33 | Kd [2]: 10300 ± 1890 nM | H3K18Ac level [3]: decrease | H3K18Ac level relative to t = 0 ([3]; 6 h): ~30 % of t = 0 | H3K18Ac level relative to t = 0 ([3]; 24 h): ~70 % of t = 0 | c-Myc expression [4]: reduces expression of c-Myc | BRD4(1) Kd (ITC) [5]: n.b. and n.b.^c | binding to BRD4(1) by ITC (in words) [5]: unable to detect binding | BRD4(1) Kd (ITC) ([5]; csv supplement): n.b. | H3K27Ac level [6]: decrease | H3K27Ac level relative to t = 0 ([6]; 6 h): ~30 % of t = 0 | H3K27Ac level relative to t = 0 ([6]; 24 h): ~70 % of t = 0 | HIF-1α level in hypoxia [7]: stabilization of HIF-1α above the level observed in hypoxia alone | Kd [8]: 200 nM | Kd [9]: 240 nM and 230 nM | binding to the other bromodomains of the panel (BROMOscan) [10]: no binding | c-Myc mRNA level [11]: effects were also observed on c-Myc mRNA
